How the values were obtained:
[1] = test system: A549 (human lung adenocarcinoma epithelial) cells; test: MTT cell viability assay, A549; assay type: cell-based; settings: increasing concentrations, 24 and 48 h
Experimental: (§1) The cells were seeded into 96-well plates at a starting density of 10^4 cells per well and cultured overnight before DEA was added to the medium for 24 h and 48 h. The medium was changed to a fresh one containing 0.5% of 3-[4,5-dimethylthiazol-2-yl]-2,5-diphenyl-tetrazolium bromide (MTT+) for an additional 3 hours, then the MTT+ reaction was terminated by adding HCl to 10 mM final concentration. The amount of blue formazan dye formed from MTT+ was proportional to the number of live cells, and was determined with an Anthos Labtech 2010 ELISA reader at 550 nm. All experiments were run in at least 4 replicates and repeated 3 times.
The effect of desethylamiodarone was measured in T24 (human urinary bladder carcinoma), A549 (human lung adenocarcinoma epithelial), B16F10 (mice melanoma), HeLa (human cervix adenocarcinoma), 4T1 (mouse mammary carcinoma) cell lines. Cells were treated with increasing concentrations of desethylamiodarone for 24 and 48 h. Cell growth was assessed by measuring metabolic activity, which reflects viability in the MTT-test in the course of 24 h, 48 h of continued exposure to desethylamiorarone. The untreated cells served as negative controls. The viability of the cells, was lower in all DEA-treated than in the control group, with the difference being statistically significant.

[2] = repetitive exposures; cited from earlier work
[3] = test system: A549 human lung adenocarcinoma epithelial cell line; test: Colony formation assay, A549; assay type: cell-based; settings: one week; 1, 1.5, 2, 2.5 or 3 μM
Experimental: (§2) Cells were trypsinized and plated in triplicate into 6-well plates at 500 cells/well. Cells were treated with different concentration of Dea. After 7 days of incubation, cells were washed and stained with Coomassie-blue, and the colonies containing more than 50 cells were counted. The number of colonies were determined and normalized to the number of colonies in controls. To assess the recovery ability of cells that survived treatment, long-term (7 days) colony formation assay was performed. […] A549 cells were incubated with the indicated concentrations of desethylamiodarone (1, 1.5, 2, 2.5 or 3 μM for one week and cell colonies were fixed, stained and counted. (A-B) Data are expressed as the mean±SD of ≧3 experiments; a p<0.01 is considered statistically significant.

[4] = test system: 4T1 (mouse mammary carcinoma) cells; test: Colony formation assay, 4T1; assay type: cell-based; settings: one week following treatment
Text: Desethylamiodarone (DEA) is the main metabolite of the widely used anti-arrhythmic drug amiodarone. DEA also has antiarrhythmic activity in clinical relevant concentration. […] (27, 28, 29, 30) DEA accumulates rapidly in the lungs. […] Here, we checked whether Desethylamiodarone can affect invasion, migration of cancer cells. First of all, we initially checked whether desethylamiodarone has effect on the viability of T24 (human urinary bladder carcinoma), B16F10 (mice melanoma), 4T1 (mouse mammary carcinoma) cells using MTT assay. As shown in FIG. 1-3 Desethylamiodarone had significant cytotoxic activity in very low concentrations. To assess the recovery ability of cells that survived treatment, long-term (7 days) colony formation assay was performed.
Cells were trypsinized and plated in triplicate into 6-well plates at 500 cells/well. Cells were treated with different concentration of Dea. After 7 days of incubation, cells were washed and stained with Coomassie-blue, and the colonies containing more than 50 cells were counted. The number of colonies were determined and normalized to the number of colonies in controls.

[5] = test system: T24 human bladder cancer cell line; test: Radiotherapy plus DEA, colony formation, T24; assay type: cell-based; settings: 1Gy or 2Gy single dose alone or with 500 nM-3 μM DEA
Experimental: Cells were trypsinized and plated in triplicate into 6-well plates at 500 cells/well. Cells were treated with different concentration of DEA and irradiated with a dose of 1.0 and 2.0 Grays. A telecobalt (Therathron 780 C) external irradiation equipment (average photon energy of 1.25 MeV) will be applied for irradiating cells. After 7 days of incubation, cells were washed and stained with Coomassie-blue, and the colonies containing more than 50 cells were counted. The number of colonies were determined and normalized to the number of colonies in controls.
To examine the effects of a DEA on the effectiveness of radiotherapy the cells were treated with 1Gy or 2Gy single dose irradiation alone or combined with 500 nM-3 μM DEA.
The cells were treated with 1Gy or 2Gy single dose irradiation alone or combined with 500 nM-3 μM DEA. Untreated cells served as controls. The results are mean±SEM of 3 independent experiments performed in at least quadruplicate. P<0.05 compared to the corresponding control group.

BMI1 = test: Western blot of BMI1 expression in T24 cells; assay type: cell-based, human; settings: T24 cells, 5, 10 and 15 μM, 24 h
Experimental: 10^6 cells were seeded into regular plates and treated as for the cell viability assay. Cells were harvested at intervals in a chilled lysis buffer containing 0.5 mM sodium-metavanadate, 1 mM ethylenediaminetetraacetic acid (EDTA) and protease inhibitor cocktail in phosphate-buffered saline (PBS). Probes were boiled and subjected to 10% sodium dodecyl sulphate polyacrylamide gel electrophoresis then transferred to nitrocellulose membranes. The membranes were blocked in 5% low fat milk for 1.5 h at room temperature then exposed to primary antibodies at 4° C. overnight in blocking solution. Appropriate horseradish peroxidase-conjugated secondary antibodies were used at a 1:5000 dilution (anti-mouse and anti-rabbit IgGs; Sigma-Aldrich, Steinheim, Germany) and visualized by enhanced chemiluminescence (Amersham Biosciences, Piscataway, N.J., USA). All experiments were repeated 3 times.
T24 cells were exposed to 5, 10 and 15 μM of DEA for 24 h intervals. Equal amounts of lysate protein were subjected to gel electrophoresis. GAPDH was used as loading control. Results are presented as representative immunoblots (top panel) and densitometric analysis of Western blots in bar diagrams (bottom graph). Data are expressed as the mean±1 SD, n=3 and presented as fold difference from control (medium). Significant difference from control: *p<0.05.

[6] = test system: MCF 7 breast cancer cell line; test: MTT cell viability assay, MCF 7; assay type: cell-based; settings: increasing concentrations, 24, 48 and 72 hours
Experimental: as §1
MCF 7 cells were exposed to increasing concentrations of DEA for 24, 48 and 72 hours. Viability of the cells was detected by the MTT method. Untreated cells served as controls.

[7] = test system: B16F10 mice melanoma cell line; test: Colony formation assay, B16F10; assay type: cell-based; settings: one week; 1, 1.5, 2, 2.5 or 3 μM
Experimental: as §2, with “B16F10” for “A549”, “significant. The data shown on FIG. 6 provide evidence that DEA can be useful to treat melanoma.” for “significant.”

**Q.** Which results are given for `CCCCc1oc2ccccc2c1C(=O)c1cc(I)c(OCCNCC)c(I)c1` [DEA, (2-butyl-3-benzofuranyl)[4-[2-(ethylamino)ethoxy]-3,5-diiodophenyl]-methanone]?
**A.** Viability of A549 cells (MTT) [1]: significantly inhibited the viability; Drug accumulation in cell cultures [2]: always higher than that of AM; Colony formation, A549 [3]: significant decrease in the number and the size of colonies; Colony formation, 4T1 [4]: significant decrease in the number and the size of colonies; Radiosensitization, colony formation, T24 [5]: sensitize bladder cancer to irradiation; BMI1 expression (BMI1): significantly suppresses BMI1 expression; Viability of MCF 7 cells (MTT) [6]: induces cell death; Colony formation, B16F10 [7]: significant decrease in the number and the size of colonies
